Results published in US10344330B2, “Glatiramer acetate response biomarker mRNA potency assay” (Mylan Inc., priority 2013, dated 2019).

Test system: IL-2 mRNA in LN cells
Test: IL-2 mRNA by real-time PCR in LN cells of GA-immunized CD-1, BALB/cByJ, SJL/J mice (Example III)
Assay type: cell-based, mouse
Conditions: 6 hours
Protocol: On Day 0, mice were immunized with 250 μg GA (GMA, Mylan Pharmaceuticals, Inc.) and CFA. The GA solution (20 mg/mL) was diluted with Dulbecco's Phosphate-Buffered Saline to 5 mg/mL. The dosing formulation consisted of equal volumes of the diluted GA solution (5 mg/mL) and CFA solution, mixed until well-emulsified. Animals were weighed and allocated to groups. Animals were dosed by injection into four footpads. The injection volume per animal was 0.1 mL (about 10 μL into each front footpad, and 40 μL into each hind footpad).
Immunized animals were euthanized by cervical dislocation on Day 10 post-immunization. Lymph node cells were isolated from animals and treated with Myelin Basic Protein (MBP, a negative control), Concanavalin A (ConA, a positive control) or GA as shown in Table 16. Lymph nodes in the axillary and popliteal regions were removed aseptically in a purifier clean bench. […] The LN were then washed 3 times with −5 mL of RPMI medium, and isolated by pressing the LN with a syringe plunger. […] The cell suspension was centrifuged at about 200×g for 10 minutes at about 4° C. and re-suspended in ice cold enriched DCCM-1 medium. Cells were seeded in 96-well tissue culture plates.
LN cells isolated from GA-immunized animals were stimulated with GA (GMA, Mylan Pharmaceuticals, Inc.) at concentrations as indicated in Tables 16 and 17. A positive control was prepared by treating LN cells with 2.5 μg/mL concavalin A (ConA, a non-specific T cell stimulant). Myelin basic protein (MBP, 10 μg/mL) and enriched DCCM-1 medium served as negative controls. The cells from all groups each were stimulated with the same GA lot. Each reaction was set up in triplicate.
After incubation at about 37° C. in a humidified CO2 incubator for 6 hours, the cells were lysed for total RNA isolation. Total RNA was isolated from treated LN cells using SV 96 Total RNA Isolation System according to the manufacturer's protocol (Promega, Cat. #Z3500). Cells were washed once with Phosphate Buffered Saline (PBS) and lysed in RNA lysis buffer. The lysate was transferred to wells of the SV 96 binding plate. Samples were washed with RNA wash solution and treated with DNase. Total RNA was eluted with nuclease-free water from the binding plate.
After the reverse transcriptase reaction was completed, cDNA samples were used directly for real-time PCR to measure the response biomarker mRNA levels produced by the stimulated cells. […] All probes for target genes contained FAM dye, and probes for the internal control contained VIC®/MGB dye. Samples will be prepared and run in 96-well plates using a Real-Time PCR system (7500, Life Technologies). This system allows direct detection of PCR-product formation by measuring the increase in fluorescent emission continuously during the PCR reaction. A relative quantitation method was used to analyze changes in mouse IL-2, IL-4, IL-5, IL-10, IL-13, IFN-γ and TNF-α expression in GA-treated samples relative to the untreated control (enriched DCCM-1 treated) samples. The Real-Time PCR program was:
The levels of mouse cytokine amplicons (IL-2, IL-4, IL-5, IL-10, IL-13, mIFN-γ and TNF-α) were normalized to internal probe levels (GAPDH) from the same samples. The following equations were used to calculate the relative increase in response to GA stimulation compared to the control sample: ΔCT=CT_target−CT_reference ΔΔCT=−ΔCT_Treated−CT_VC

[1] = Group 1C: CD-1, GA-immunized, stimulation 10 μg/mL
[2] = Group 2C: BALB/cByJ, GA-immunized, stimulation 10 μg/mL
[3] = Group 3C: SJL/J, GA-immunized, stimulation 10 μg/mL

| Molecule | IL-2 mRNA Expression (Group 1C: CD-1, GA-immunized, stimulation 0.3 μg/mL) | IL-2 mRNA Expression (Group 1C: CD-1, GA-immunized, stimulation 1 μg/mL) | IL-2 mRNA Expression (Group 1C: CD-1, GA-immunized, stimulation 3 μg/mL) | IL-2 mRNA Expression [1] | IL-2 mRNA Expression (Group 2C: BALB/cByJ, GA-immunized, stimulation 0.3 μg/mL) | IL-2 mRNA Expression (Group 2C: BALB/cByJ, GA-immunized, stimulation 1 μg/mL) | IL-2 mRNA Expression (Group 2C: BALB/cByJ, GA-immunized, stimulation 3 μg/mL) | IL-2 mRNA Expression [2] | IL-2 mRNA Expression (Group 3C: SJL/J, GA-immunized, stimulation 0.3 μg/mL) | IL-2 mRNA Expression (Group 3C: SJL/J, GA-immunized, stimulation 1 μg/mL) | IL-2 mRNA Expression (Group 3C: SJL/J, GA-immunized, stimulation 3 μg/mL) | IL-2 mRNA Expression [3] | IL-2 mRNA Expression (Group 1C: CD-1, GA-immunized, stimulation 2.5 μg/mL) | IL-2 mRNA Expression (Group 2C: BALB/cByJ, GA-immunized, stimulation 2.5 μg/mL) | IL-2 mRNA Expression (Group 3C: SJL/J, GA-immunized, stimulation 2.5 μg/mL) |
| --- | --- | --- | --- | --- | --- | --- | --- | --- | --- | --- | --- | --- | --- | --- | --- |
| L-glutamic acid polymer with L-alanine, L-lysine and L-tyrosine, acetate (salt) [GA] | 1.0 fold change vs control | 1.6 fold change vs control | 2.9 fold change vs control | 4.3 fold change vs control | 4.0 fold change vs control | 11.7 fold change vs control | 27.4 fold change vs control | 38.0 fold change vs control | 1.3 fold change vs control | 4.7 fold change vs control | 11.0 fold change vs control | 22.0 fold change vs control |  |  |  |
| Concanavalin A [ConA, reference compound] |  |  |  |  |  |  |  |  |  |  |  |  | 17.1 fold change vs control | 231.7 fold change vs control | 61.9 fold change vs control |
| MBP: myelin basic protein, a negative control (protein, UniProt P02686 1-304, looked up) Myelin basic protein: MGNHAGKRELNAEKASTNSETNRGESEKKRNLGELSRTTSEDNEVFGEADANQNNGTSSQDTAVTDSKRTADPKNAWQDAHPADPGSRPHLIRLFSRDAPGREDNTFKDRPSESDELQTIQEDSAATSESLDVMASQKRPSQRHGSKYLATASTMDHARHGFLPRHRDTGILDSIGRFFGGDRGAPKRGSGKDSHHPARTAHYGSLPQKSHGRTQDENPVVHFFKNIVTPRTPPPSQGKGRGLSLSRFSWGAEGQRPGFGYGGRASDYKSAHKGFKGVDAQGTLSKIFKLGGRDSRSGSPMARR |  |  |  | 0.9 fold change vs control |  |  |  | 2.7 fold change vs control |  |  |  | 0.5 fold change vs control |  |  |  |
